Source: ChEMBL document CHEMBL4800722, “Data for DCP probe BI 605906” (2021)

Experiments:
[1] = biological target: Serine/threonine-protein kinase VRK2 (Homo sapiens) (UniProt Q86Y07); details: Compound concentration 1.0 uM
[2] = biological target: Serine/threonine-protein kinase DCLK1 (Homo sapiens) (UniProt O15075); details: Compound concentration 1.0 uM
[3] = biological target: cAMP-dependent protein kinase catalytic subunit PRKX (Homo sapiens) (UniProt P51817); details: Compound concentration 1.0 uM
[4] = biological target: Serine/threonine-protein kinase greatwall (Homo sapiens) (UniProt Q96GX5); assay: MASTL Invitrogen Lab (UK) kinase screen (BI); details: Compound concentration 1.0 uM
[5] = species: Homo sapiens; assay: PKBDPH (PKB delta PH) DUNDEE kinase screen (BI); details: Compound concentration 10.0 uM
[6] = system: PI3-kinase p110-alpha/p85-alpha (Homo sapiens), P27986+P42336 [E545K]; details: Compound concentration 1.0 uM
[7] = biological target: 3-phosphoinositide-dependent protein kinase 1 (Homo sapiens) (UniProt O15530); details: Compound concentration 1.0 uM
[8] = biological target: cAMP-dependent protein kinase catalytic subunit gamma (Homo sapiens) (UniProt P22612); assay: PRKACG (PRKAC GAM Invitrogen Lab (UK) kinase screen (BI); details: Compound concentration 1.0 uM
[9] = biological target: 5-hydroxytryptamine receptor 7 (Homo sapiens) (UniProt P34969); details: Compound concentration 10.0 uM
[10] = biological target: Activin receptor type-1-like (Homo sapiens) (UniProt P37023); assay: ACVRL1 (ALK1) Invitrogen Lab (UK) kinase screen (BI); details: Compound concentration 1.0 uM
Chain of Activin receptor type-1-like (Homo sapiens) (P37023 whole entry): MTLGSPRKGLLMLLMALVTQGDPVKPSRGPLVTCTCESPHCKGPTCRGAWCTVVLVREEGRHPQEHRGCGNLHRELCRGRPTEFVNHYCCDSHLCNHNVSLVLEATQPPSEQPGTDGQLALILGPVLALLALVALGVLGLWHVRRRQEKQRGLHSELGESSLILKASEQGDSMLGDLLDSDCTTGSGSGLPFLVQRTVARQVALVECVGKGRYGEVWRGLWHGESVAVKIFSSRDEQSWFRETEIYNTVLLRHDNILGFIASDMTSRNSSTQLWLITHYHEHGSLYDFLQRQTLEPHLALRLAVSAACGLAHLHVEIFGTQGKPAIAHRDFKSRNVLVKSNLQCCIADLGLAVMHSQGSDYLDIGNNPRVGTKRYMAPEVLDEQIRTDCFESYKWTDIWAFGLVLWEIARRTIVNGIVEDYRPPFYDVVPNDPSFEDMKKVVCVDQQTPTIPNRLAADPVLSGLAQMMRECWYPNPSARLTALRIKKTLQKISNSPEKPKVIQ

[11] = biological target: 5-hydroxytryptamine receptor 1E (Homo sapiens) (UniProt P28566); details: Compound concentration 10.0 uM
Chain of 5-hydroxytryptamine receptor 1E (Homo sapiens) (P28566 whole entry): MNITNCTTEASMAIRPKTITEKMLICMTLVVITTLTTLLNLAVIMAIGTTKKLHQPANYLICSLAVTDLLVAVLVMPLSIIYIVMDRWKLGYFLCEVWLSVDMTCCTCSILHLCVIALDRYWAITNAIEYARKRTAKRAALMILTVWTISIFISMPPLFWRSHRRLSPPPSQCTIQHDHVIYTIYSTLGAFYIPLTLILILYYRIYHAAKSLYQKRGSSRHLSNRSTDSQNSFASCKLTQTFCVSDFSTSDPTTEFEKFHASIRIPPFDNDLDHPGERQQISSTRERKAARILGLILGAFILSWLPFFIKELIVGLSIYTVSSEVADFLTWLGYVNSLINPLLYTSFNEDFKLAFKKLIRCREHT

[12] = biological target: D(1A) dopamine receptor (Homo sapiens) (UniProt P21728); details: Compound concentration 10.0 uM
[13] = biological target: Alpha-2C adrenergic receptor (Homo sapiens) (UniProt P18825); details: Compound concentration 10.0 uM
Chain of Alpha-2C adrenergic receptor (Homo sapiens) (P18825 whole entry): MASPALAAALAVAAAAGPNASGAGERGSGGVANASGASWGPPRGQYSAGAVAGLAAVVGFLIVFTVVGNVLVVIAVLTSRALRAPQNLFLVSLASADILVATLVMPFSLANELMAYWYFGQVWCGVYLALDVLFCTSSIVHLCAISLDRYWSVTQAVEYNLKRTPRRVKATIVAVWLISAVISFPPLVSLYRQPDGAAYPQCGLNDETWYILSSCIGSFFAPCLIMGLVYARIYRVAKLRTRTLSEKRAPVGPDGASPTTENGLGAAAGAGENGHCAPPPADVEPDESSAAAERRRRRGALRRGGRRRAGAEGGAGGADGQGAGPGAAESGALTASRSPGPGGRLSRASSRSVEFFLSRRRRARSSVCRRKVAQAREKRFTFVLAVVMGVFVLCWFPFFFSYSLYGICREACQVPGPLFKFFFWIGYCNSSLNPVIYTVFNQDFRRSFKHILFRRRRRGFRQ

[14] = biological target: AMPK alpha2/beta1/gamma1 (Homo sapiens) (UniProt P54646+P54619+Q9Y478); assay: AMPK A2B1G1 Invitrogen Lab (UK) kinase screen (BI); assay type: protein-complex assay; details: Compound concentration 1.0 uM
[15] = biological target: Serine/threonine-protein kinase SIK1 (Homo sapiens) (UniProt P57059); details: Compound concentration 1.0 uM
[16] = biological target: MAP/microtubule affinity-regulating kinase 3 (Homo sapiens) (UniProt P27448); assay: MARK3 DUNDEE kinase screen (BI); details: Compound concentration 10.0 uM
[17] = biological target: Serine/threonine-protein kinase 16 (Homo sapiens) (UniProt O75716); details: Compound concentration 1.0 uM
[18] = biological target: Mitogen-activated protein kinase 15 (Homo sapiens) (UniProt Q8TD08); assay: MAPK15 (ERK7) Invitrogen Lab (UK) kinase screen (BI); details: Compound concentration 1.0 uM
[19] = biological target: Tyrosine-protein kinase JAK1 (Homo sapiens) (UniProt P23458); details: Compound concentration 1.0 uM
[20] = biological target: Type-1 angiotensin II receptor (Homo sapiens) (UniProt P30556); assay: AT1 Eurofins SafetyScreen44 (BI)
Chain of Type-1 angiotensin II receptor (Homo sapiens) (P30556 whole entry): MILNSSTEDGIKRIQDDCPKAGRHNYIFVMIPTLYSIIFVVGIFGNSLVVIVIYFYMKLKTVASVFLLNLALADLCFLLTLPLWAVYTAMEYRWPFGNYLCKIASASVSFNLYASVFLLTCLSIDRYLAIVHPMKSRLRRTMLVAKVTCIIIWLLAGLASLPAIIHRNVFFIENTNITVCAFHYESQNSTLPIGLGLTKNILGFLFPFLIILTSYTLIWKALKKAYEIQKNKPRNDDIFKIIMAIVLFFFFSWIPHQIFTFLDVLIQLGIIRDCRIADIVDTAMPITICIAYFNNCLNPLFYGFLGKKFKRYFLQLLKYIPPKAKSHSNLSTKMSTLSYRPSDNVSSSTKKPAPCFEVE

[21] = biological target: Serine/threonine-protein kinase TAO2 (Homo sapiens) (UniProt Q9UL54); details: Compound concentration 1.0 uM
[22] = biological target: Sphingosine kinase 1 (Homo sapiens) (UniProt Q9NYA1); assay: SPHK1 Invitrogen Lab (UK) kinase screen (BI); details: Compound concentration 1.0 uM
[23] = biological target: Mitogen-activated protein kinase 10 (Homo sapiens) (UniProt P53779); assay: JNK3 ALPHA 1 DUNDEE kinase screen (BI); details: Compound concentration 10.0 uM
[24] = biological target: Rho-associated protein kinase 1 (Homo sapiens) (UniProt Q13464); assay: ROCK1 Invitrogen Lab (UK) kinase screen (BI)
Chain of Rho-associated protein kinase 1 (Homo sapiens) (Q13464 2-1354 limits assumed): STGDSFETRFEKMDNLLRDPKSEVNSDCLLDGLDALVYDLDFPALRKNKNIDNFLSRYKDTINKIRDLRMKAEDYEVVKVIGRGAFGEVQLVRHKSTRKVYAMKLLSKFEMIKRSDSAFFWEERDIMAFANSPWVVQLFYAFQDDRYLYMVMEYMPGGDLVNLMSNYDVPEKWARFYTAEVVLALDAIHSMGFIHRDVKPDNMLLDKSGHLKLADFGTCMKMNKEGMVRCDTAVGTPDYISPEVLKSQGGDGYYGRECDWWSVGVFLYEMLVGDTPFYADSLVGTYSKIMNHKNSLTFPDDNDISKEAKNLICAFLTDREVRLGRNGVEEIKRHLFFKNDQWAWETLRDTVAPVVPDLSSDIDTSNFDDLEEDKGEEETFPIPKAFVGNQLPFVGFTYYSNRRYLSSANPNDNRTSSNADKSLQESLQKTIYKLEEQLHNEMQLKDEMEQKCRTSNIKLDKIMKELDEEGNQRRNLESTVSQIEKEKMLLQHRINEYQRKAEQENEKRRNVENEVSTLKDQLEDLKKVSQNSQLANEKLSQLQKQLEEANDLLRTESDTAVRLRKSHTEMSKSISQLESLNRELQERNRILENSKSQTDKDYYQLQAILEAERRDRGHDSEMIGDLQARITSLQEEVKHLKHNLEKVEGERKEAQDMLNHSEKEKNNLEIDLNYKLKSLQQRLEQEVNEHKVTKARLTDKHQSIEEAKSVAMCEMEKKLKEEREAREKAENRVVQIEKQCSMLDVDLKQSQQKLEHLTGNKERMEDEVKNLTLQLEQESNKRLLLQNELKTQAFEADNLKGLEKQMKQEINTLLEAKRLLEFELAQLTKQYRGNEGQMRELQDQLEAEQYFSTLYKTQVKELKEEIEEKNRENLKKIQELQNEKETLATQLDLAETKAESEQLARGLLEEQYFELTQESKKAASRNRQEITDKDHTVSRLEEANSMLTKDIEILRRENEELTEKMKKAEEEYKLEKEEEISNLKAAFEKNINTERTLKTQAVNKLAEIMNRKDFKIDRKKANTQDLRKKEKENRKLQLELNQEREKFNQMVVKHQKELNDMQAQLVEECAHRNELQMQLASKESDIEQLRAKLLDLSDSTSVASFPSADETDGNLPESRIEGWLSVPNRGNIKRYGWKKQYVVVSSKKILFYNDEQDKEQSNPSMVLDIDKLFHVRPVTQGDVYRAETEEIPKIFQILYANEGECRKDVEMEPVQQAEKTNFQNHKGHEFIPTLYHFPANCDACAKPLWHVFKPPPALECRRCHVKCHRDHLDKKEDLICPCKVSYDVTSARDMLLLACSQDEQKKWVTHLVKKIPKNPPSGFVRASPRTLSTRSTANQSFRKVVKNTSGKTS

[25] = biological target: Serine/threonine-protein kinase ULK2 (Homo sapiens) (UniProt Q8IYT8); details: Compound concentration 1.0 uM
[26] = biological target: G protein-coupled receptor kinase 4 (Homo sapiens) (UniProt P32298); details: Compound concentration 1.0 uM
[27] = biological target: Tyrosine-protein kinase Yes (Homo sapiens) (UniProt P07947); assay: YES1 Invitrogen Lab (UK) kinase screen (BI); details: Compound concentration 1.0 uM
[28] = biological target: Interstitial collagenase (Homo sapiens) (UniProt P03956); details: Compound concentration 10.0 uM
[29] = biological target: 5-hydroxytryptamine receptor 2C (Homo sapiens) (UniProt P28335); details: Compound concentration 10.0 uM
[30] = biological target: Mitogen-activated protein kinase 11 (Homo sapiens) (UniProt Q15759); details: Compound concentration 1.0 uM
[31] = biological target: Protein kinase C zeta type (Homo sapiens) (UniProt Q05513); assay: PRKCZ Invitrogen Lab (UK) kinase screen (BI); details: Compound concentration 1.0 uM
[32] = biological target: Mitogen-activated protein kinase kinase kinase 20 (Homo sapiens) (UniProt Q9NYL2); details: Compound concentration 1.0 uM
[33] = biological target: Polyunsaturated fatty acid lipoxygenase ALOX12 (Homo sapiens) (UniProt P18054); details: Compound concentration 10.0 uM
[34] = biological target: Calcium/calmodulin-dependent protein kinase type II subunit gamma (Homo sapiens) (UniProt Q13555); details: Compound concentration 1.0 uM
[35] = biological target: MAP/microtubule affinity-regulating kinase 4 (Homo sapiens) (UniProt Q96L34); details: Compound concentration 1.0 uM
[36] = biological target: Serine/threonine-protein kinase tousled-like 2 (Homo sapiens) (UniProt Q86UE8); details: Compound concentration 1.0 uM
Chain of Serine/threonine-protein kinase tousled-like 2 (Homo sapiens) (Q86UE8 whole entry, looked up): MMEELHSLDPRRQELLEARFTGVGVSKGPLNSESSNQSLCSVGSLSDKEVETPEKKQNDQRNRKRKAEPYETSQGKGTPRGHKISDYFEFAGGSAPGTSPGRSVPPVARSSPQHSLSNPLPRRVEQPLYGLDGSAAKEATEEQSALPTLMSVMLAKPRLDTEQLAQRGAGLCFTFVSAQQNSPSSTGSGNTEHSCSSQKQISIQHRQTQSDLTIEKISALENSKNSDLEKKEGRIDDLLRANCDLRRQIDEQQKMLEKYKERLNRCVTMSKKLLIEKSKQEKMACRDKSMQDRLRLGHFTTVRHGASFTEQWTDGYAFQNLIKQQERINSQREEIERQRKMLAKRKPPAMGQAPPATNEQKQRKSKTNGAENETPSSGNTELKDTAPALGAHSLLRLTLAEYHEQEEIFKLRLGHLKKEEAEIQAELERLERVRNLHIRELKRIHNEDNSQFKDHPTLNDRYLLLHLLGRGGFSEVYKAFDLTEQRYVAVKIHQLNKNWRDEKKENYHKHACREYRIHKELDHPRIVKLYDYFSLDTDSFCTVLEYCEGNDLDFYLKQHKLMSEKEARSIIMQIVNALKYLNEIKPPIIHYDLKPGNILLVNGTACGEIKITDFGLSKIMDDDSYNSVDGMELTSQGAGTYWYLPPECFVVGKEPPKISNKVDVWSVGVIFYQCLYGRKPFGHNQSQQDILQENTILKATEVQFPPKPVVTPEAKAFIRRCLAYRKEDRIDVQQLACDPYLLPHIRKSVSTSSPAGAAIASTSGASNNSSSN

[37] = biological target: Ephrin type-B receptor 4 (Homo sapiens) (UniProt P54760); details: Compound concentration 1.0 uM
[38] = biological target: G protein-coupled receptor kinase 6 (Homo sapiens) (UniProt P43250); details: Compound concentration 1.0 uM
[39] = biological target: Dual specificity mitogen-activated protein kinase kinase 5 (Homo sapiens) (UniProt Q13163); assay: MAP2K5 Invitrogen Lab (UK) kinase screen (BI); details: Compound concentration 1.0 uM
[40] = biological target: SRSF protein kinase 1 (Homo sapiens) (UniProt Q96SB4); assay: SRPK1 DUNDEE kinase screen (BI); details: Compound concentration 10.0 uM
[41] = biological target: Serine/threonine-protein kinase SIK3 (Homo sapiens) (UniProt Q9Y2K2); assay: SIK3 Invitrogen Lab (UK) kinase screen (BI); details: Compound concentration 1.0 uM
[42] = biological target: Tyrosine-protein kinase BTK (Homo sapiens) (UniProt Q06187)
Chain of Tyrosine-protein kinase BTK (Homo sapiens) (Q06187 whole entry): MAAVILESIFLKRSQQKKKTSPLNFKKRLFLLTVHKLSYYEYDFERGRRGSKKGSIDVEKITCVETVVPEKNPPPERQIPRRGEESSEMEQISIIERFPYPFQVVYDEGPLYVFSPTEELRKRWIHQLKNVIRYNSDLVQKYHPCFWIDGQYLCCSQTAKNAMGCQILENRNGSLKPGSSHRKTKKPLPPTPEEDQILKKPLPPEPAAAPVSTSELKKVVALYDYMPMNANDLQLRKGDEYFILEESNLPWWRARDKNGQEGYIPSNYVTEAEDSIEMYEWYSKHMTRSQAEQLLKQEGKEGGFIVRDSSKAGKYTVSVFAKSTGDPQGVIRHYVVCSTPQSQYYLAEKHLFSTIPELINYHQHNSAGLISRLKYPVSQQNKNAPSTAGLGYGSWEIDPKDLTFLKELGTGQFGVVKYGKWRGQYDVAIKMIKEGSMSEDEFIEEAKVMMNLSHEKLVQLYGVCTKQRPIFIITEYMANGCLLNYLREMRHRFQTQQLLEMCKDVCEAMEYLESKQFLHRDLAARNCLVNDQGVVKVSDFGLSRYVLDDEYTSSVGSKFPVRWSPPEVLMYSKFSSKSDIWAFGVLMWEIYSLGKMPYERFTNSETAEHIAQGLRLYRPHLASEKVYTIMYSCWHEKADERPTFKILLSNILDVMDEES

[43] = biological target: Tyrosine-protein kinase Blk (Homo sapiens) (UniProt P51451); assay: BLK Invitrogen Lab (UK) kinase screen (BI); details: Compound concentration 1.0 uM
[44] = biological target: Tyrosine-protein kinase CSK (Homo sapiens) (UniProt P41240)
Chain of Tyrosine-protein kinase CSK (Homo sapiens) (P41240 2-450 limits assumed): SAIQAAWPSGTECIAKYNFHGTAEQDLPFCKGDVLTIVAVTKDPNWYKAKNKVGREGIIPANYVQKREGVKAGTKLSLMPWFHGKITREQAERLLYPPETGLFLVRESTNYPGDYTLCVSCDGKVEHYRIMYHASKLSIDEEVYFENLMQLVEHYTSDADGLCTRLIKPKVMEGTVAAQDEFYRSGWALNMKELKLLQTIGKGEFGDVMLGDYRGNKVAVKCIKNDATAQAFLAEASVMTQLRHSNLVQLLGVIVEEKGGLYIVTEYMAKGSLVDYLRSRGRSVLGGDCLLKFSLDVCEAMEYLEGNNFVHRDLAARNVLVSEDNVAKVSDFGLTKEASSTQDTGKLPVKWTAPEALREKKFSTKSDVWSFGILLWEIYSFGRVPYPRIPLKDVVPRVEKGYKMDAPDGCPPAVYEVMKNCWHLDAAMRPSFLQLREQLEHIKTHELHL

With `CCC(F)(F)c1cc(N2CCC(S(C)(=O)=O)CC2)nc2sc(C(N)=O)c(N)c12` [BI-605906] as the compound, how does the residual activity [1] read?
The residual activity was 82%.

What about the residual activity [2] of the same compound?
Its residual activity is 99%.

And the residual activity [3]?
The residual activity was 96%.

What about the residual activity [4] of the same compound?
The residual activity was 85%.

What about the residual activity [5] of the same compound?
Its residual activity is 75.6%.

What about the residual activity [6] of the same compound?
The residual activity was 100%.

And the residual activity [7]?
Its residual activity is 82%.

And the residual activity [8]?
Its residual activity is 103%.

And the inhibition [9]?
The inhibition was 13.7%.

And the residual activity [10]?
Its residual activity is 64%.

What about the inhibition [11] of the same compound?
Its inhibition is 1.69%.

What about the residual activity [12] of the same compound?
Its residual activity is 101%.

And the inhibition [13]?
Its inhibition is 13.7%.

And the residual activity [14]?
Its residual activity is 88%.

What about the residual activity [15] of the same compound?
Its residual activity is 92%.

And the residual activity [16]?
Its residual activity is 63.8%.

What about the residual activity [17] of the same compound?
The residual activity was 91%.

And the residual activity [18]?
Its residual activity is 103%.

And the residual activity [19]?
Its residual activity is 98%.

What about the residual activity ([20]; Compound concentration 10.0 uM) of the same compound?
Its residual activity is 104%.

And the residual activity ([20]; Compound concentration 100.0 uM)?
Its residual activity is 72%.

And the residual activity [21]?
Its residual activity is 101%.

And the residual activity [22]?
The residual activity was 81%.

And the residual activity [23]?
The residual activity was 72.4%.

What about the residual activity ([24]; Compound concentration 1.0 uM) of the same compound?
The residual activity was 88%.

What about the residual activity ([24]; Compound concentration 10.0 uM) of the same compound?
The residual activity was 47%.

And the residual activity [25]?
Its residual activity is 93%.

What about the residual activity [26] of the same compound?
Its residual activity is 100%.

And the residual activity [27]?
Its residual activity is 74%.

And the residual activity [28]?
Its residual activity is 94%.

What about the inhibition [29] of the same compound?
The inhibition was -5.41%.

What about the residual activity [30] of the same compound?
The residual activity was 98%.

What about the residual activity [31] of the same compound?
The residual activity was 112%.

And the residual activity [32]?
Its residual activity is 97%.

And the residual activity [33]?
The residual activity was 96%.

What about the residual activity [34] of the same compound?
The residual activity was 90%.

And the residual activity [35]?
The residual activity was 100%.

What about the residual activity [36] of the same compound?
The residual activity was 98%.

What about the residual activity [37] of the same compound?
Its residual activity is 90%.

What about the residual activity [38] of the same compound?
Its residual activity is 93%.

And the residual activity [39]?
The residual activity was 107%.

What about the residual activity [40] of the same compound?
Its residual activity is 73.3%.

And the residual activity [41]?
The residual activity was 79%.

What about the residual activity ([42]; Compound concentration 1.0 uM) of the same compound?
Its residual activity is 85%.

And the residual activity ([42]; Compound concentration 10.0 uM)?
Its residual activity is 96%.

What about the residual activity [43] of the same compound?
Its residual activity is 88%.

What about the residual activity ([44]; Compound concentration 1.0 uM) of the same compound?
Its residual activity is 96%.

What about the residual activity ([44]; Compound concentration 10.0 uM) of the same compound?
Its residual activity is 84%.
